{"source": "patent US10011572B2", "about": "“Monocyclic isoxazolines as inhibitors of cholesterol ester transfer protein” (Merck Sharp & Dohme Corp., priority 2014, dated 2018)", "key": {"[1]": {"conditions": "anacetrapib with baseline statin therapy compared with patients treated with just a statin; cited from earlier work"}, "[2]": {"conditions": "torcetrapib and atorvastatin concomitantly compared with atorvastatin alone; cited from earlier work"}, "[3]": {"conditions": "Phase III outcomes trial, cited from earlier work"}, "[4]": {"target": "T1, endogenous CETP from serum (Homo sapiens, UniProt P11597)", "T1 construct": "yielding a concentration of approximately 15 nM endogenous CETP in the assay; from tissue; host or cells: human serum", "T1 sequence (P11597 18-493)": "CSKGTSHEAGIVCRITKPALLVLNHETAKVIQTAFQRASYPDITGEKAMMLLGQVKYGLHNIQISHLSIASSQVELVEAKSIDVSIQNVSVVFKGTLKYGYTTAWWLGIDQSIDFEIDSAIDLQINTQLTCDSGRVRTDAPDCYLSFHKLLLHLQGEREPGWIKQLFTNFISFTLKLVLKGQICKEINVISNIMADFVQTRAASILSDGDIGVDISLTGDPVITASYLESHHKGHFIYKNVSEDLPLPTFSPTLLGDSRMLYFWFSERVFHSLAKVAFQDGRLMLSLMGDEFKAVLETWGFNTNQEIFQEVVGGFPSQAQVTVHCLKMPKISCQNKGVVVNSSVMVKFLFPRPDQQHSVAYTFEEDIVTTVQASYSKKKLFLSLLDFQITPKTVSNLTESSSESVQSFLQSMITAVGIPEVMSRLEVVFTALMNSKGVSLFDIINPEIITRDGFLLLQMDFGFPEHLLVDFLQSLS", "assay": "RTA assay in 95% human serum (in vitro radioactive assay of CETP-catalyzed CE and TG transfer, endogenous CETP)", "format": "biochemical", "conditions": "read-out: IC50 (nM) RTA with 95% HS", "procedure": "In Vitro Radioactive Assays of CETP-Catalyzed CE and TG Transfer (RTA Assay)\nReagents and sources are: [3H] cholesteryl oleate (GE #TRK.886), [3H] Triolein (Perkin-Elmer NET-431), Butylated hydroxyl toluene (Aldrich, #D4740-4), DOPC (Sigma, # P6354), Sodium Bromide (Fisher scientific #S255-500), PEG 8000 (Fisher, #BP233-1), and human HDL (Intracel Corp #RP-036).\nAn in vitro assay for determining IC50's to identify compounds that inhibit CETP transfer activity is performed based on a modification of a published method (Morton and Zilversmit, (1981) A plasma inhibitor of triglyceride and cholesteryl ester transfer activities, J. Biol. Chem. 256(23), 11992-11995). The ability of inhibitors to alter CETP activity is performed using two different assays: one using recombinant CETP and one using an endogenous plasma source of CETP. Both assays measure the transfer of [3H] cholesteryl oleate or [3H] triolein from exogenous LDL to HDL.\nRadiolabeled donor particles are generated by first combining 100 μl of 200 μM butylated hydroxyl toluene in CHCl3, 216 μL of 21.57 mM DOPC in EtOH, and either 500 μCi [3H]-triolein (Perkin Elmer #NET-431) or 500 μCi [3H]-cholesteryl oleate (GE #TRK886) in a glass tube. Reagents are mixed, dried under nitrogen, and then resuspended in 2 mL of 50 mM Tris, 27 μM EDTA at pH 7.4. After a brief vortex, the solution is sonicated until clear and mixed with 20 mL of fresh human serum. The mixture is incubated overnight at 37° C. The [3H] labeled LDL substrate is separated at 1.063 g/ml density by sequential ultracentrifugal flotation in NaBr according to the method of Havel, Eder, et al., 1955, and Chapman, Goldstein, et al., 1981. Once isolated the particles are dialyzed 3× in CETP buffer (50 mM Tris, pH 7.4, 100 mM NaCl, 1 mM EDTA). Human HDL is purchased from Intracel and used as the acceptor particles.\nTransfer assays are performed in a 96-well v-bottom polypropylene plate. For the RTA using recombinant CETP (2% RTA), an assay cocktail is prepared with the final concentrations 128 μg/mL HDL, 20 nM rCETP, 2% human serum, and 1×CETP buffer. 1 μL of each test compound diluted in DMSO is added to 47 μL of assay cocktail per well and incubated at 37° C. for 1 hour. To initiate the transfer reaction, 2 μL radiolabeled LDL is added. After an additional 60 min of incubation at 37° C., the transfer action is terminated by precipitation of LDL with an equal volume of 20% WN PEG 8000. The plates are centrifuged at 2000 rpm for 30 minutes at 4° C. A 40 μL aliquot of the HDL-containing supernatant is transferred to a Packard Optiplate™ with 200 μL of MicroScint™ 20. After mixing, plates are counted by liquid scintillation. Counts present in the supernatant for blanks (wells containing only HDL acceptor, CETP buffer and DMSO) are subtracted from those containing test compounds and used to correct for non-specific transfer.\nFor the transfer assay using endogenous CETP from serum (95% RTA), the same procedure is used except that human serum is added such that a final concentration of serum of 95% of the total assay volume is achieved, yielding a concentration of approximately 15 nM endogenous CETP in the assay. This is then combined with HDL and CETP buffer and the reaction proceeds as above and is terminated as described.\nComparison of the counts of samples with inhibitors to an uninhibited (DMSO only) positive control yield a percent inhibition. A plot of percent inhibition vs. log of inhibitor concentration, fit to a Sigmoidal 4 parameter equation is used to calculate IC50.\nStarting materials are commercially available or are made using known procedures or as shown below. The examples may be synthesized according to the general schemes provided below and by using the synthetic intermediates that are described. The data reported for the examples below were obtained using the RTA assay in 95% human serum."}}}
{"compound": "COc1cc(F)c(C(C)C)cc1-c1ccc(C(F)(F)F)cc1CN1C(=O)O[C@H](c2cc(C(F)(F)F)cc(C(F)(F)F)c2)[C@@H]1C", "note": "[anacetrapib]", "values": [{"measurement": "decrease of LDL-C", "setting": "[1]", "result": 40, "unit": "%"}, {"measurement": "increase of HDL-C", "setting": "[1]", "result": 138, "unit": "%"}]}
{"compound": "CCOC(=O)N1c2ccc(C(F)(F)F)cc2[C@@H](N(Cc2cc(C(F)(F)F)cc(C(F)(F)F)c2)C(=O)OC)C[C@H]1CC", "note": "[torcetrapib]", "values": [{"measurement": "mortality", "setting": "[2]", "result": "higher incidence of mortality"}]}
{"compound": "CCC(CC)CC1(C(=O)Nc2ccccc2SC(=O)C(C)C)CCCCC1", "note": "[dalcetrapib]", "values": [{"measurement": "clinical benefit (interim data)", "setting": "[3]; terminated early", "result": "did not show a clinical benefit"}, {"measurement": "safety issues", "setting": "[3]", "result": "no safety issues detected"}]}
{"compound": "COc1ncc(-c2ccc(C(=O)O)cc2C)cc1-c1cnc(C(F)(F)F)cc1CC1=NO[C@H](c2cc(C(F)(F)F)cc(C(F)(F)F)c2)C1", "note": "[Example 7, (S)-4-[4′-({5-[3,5-bis(trifluoromethyl)phenyl]-4,5-dihydroisoxazol-3-yl}methyl)-2-methoxy-6′-(trifluoromethyl)-3,3′-bipyridin-5-yl]-3-methylbenzoic acid]", "values": [{"measurement": "IC50", "setting": "[4]", "result": 4970, "unit": "nM"}]}
